From patent US20250304537A1 (Repare Therapeutics Inc., priority 2022, published 2025) come the findings set out here.

The target in experiment [1] is recombinant human Myt1 (full length PKMYT1) (Homo sapiens (Human), UniProt Q99640). The experiment in a line: Recombinant human Myt1 kinase assay (ADP-Glo). It counts as biochemical. Conditions: 10 μM ATP. In short, it runs like this:
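Full-length insect-cell-expressed human Myt1 (18 nM final) was preincubated with compound (0.5% DMSO) for 15 min at 22 °C. The reaction ran with 10 μM ATP for 60 min at 30 °C in HEPES buffer with Mg2+/Mn2+ and DTT. ADP formed was read by ADP-Glo luminescence, giving IC50 and % max inhibition.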
(ADP-Glo first removes unused ATP, then detects ADP through luciferase.)

In experiment [2] the test system is PKMYT1 (CDK1 pThr14) in FUOV1 cells. The experiment in a line: PKMYT1 cell-based activity assay, CDK1 pThr14 AlphaLISA in FUOV1 cells. Particulars: 2 h, 2 hours with compound, read-out: FUOV-1 CDK1 pThr14 IC50. In a few lines:
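FUOV1 cells were treated with PKMYT1 inhibitor for 2 h at 37 °C, then lysed. CDK1 pThr14 was measured by AlphaLISA, pairing an anti-pThr14 antibody with an anti-total CDK1 antibody (5 nM each). Signal read at 680/615 nm and used to derive IC50.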

Chain of recombinant human Myt1 (full length PKMYT1) (Q99640 whole entry): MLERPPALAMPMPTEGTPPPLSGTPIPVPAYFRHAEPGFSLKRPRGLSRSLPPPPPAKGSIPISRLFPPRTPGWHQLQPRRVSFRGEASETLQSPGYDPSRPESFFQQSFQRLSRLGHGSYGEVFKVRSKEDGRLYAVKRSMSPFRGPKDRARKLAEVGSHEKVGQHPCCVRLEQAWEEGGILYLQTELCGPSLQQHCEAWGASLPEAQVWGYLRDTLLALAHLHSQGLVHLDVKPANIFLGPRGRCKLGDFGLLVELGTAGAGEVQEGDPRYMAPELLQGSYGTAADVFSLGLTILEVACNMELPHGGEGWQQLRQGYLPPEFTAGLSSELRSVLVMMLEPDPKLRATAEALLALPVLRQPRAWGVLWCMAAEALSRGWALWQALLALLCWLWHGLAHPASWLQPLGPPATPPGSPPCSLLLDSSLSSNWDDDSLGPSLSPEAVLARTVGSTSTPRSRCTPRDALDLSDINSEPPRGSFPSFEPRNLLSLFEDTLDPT

The IC50 is the concentration needed to halve the response being measured. As for `Cc1ccc2[nH]ncc2c1-c1nc(-c2ccc(S(C)(=O)=O)cc2NC2CCOCC2)nc(C(N)=O)c1N` [Compound 831], the IC50 in experiment [1] was less than 3 nM; in experiment [2], 118 nM.
For `Cc1ccc2[nH]ncc2c1-c1nc(-c2cc(F)cnc2N[C@H]2CC[C@@](O)(C(F)(F)F)CC2)nc(C(N)=O)c1N` [Compound 834] the same measures were 21 nM and 490 nM.
For `Cc1ccc2[nH]ncc2c1-c1nc(-c2cc(F)cnc2N[C@H]2CC[C@](O)(C(F)(F)F)CC2)nc(C(N)=O)c1N` [Compound 835] the same measures were 11 nM and 86 nM.
For `Cc1ccc2[nH]ncc2c1-c1nc(-c2cc(Cl)ncc2NC2CCOCC2)nc(C(N)=O)c1N` [Compound 839] the same measures were 4 nM and 22 nM.
On to `Cc1ccc2[nH]ncc2c1-c1nc(-c2cc(F)ncc2NC2CCOCC2)nc(C(N)=O)c1N` [Compound 843], for which the results for the half-maximal inhibitory concentration (IC50) in experiment [1] and in experiment [2] were 3 nM and 22 nM, respectively.
For `Cc1ccc2[nH]ncc2c1-c1nc(-c2cn(C)nc2NC2CCOCC2)nc(C(N)=O)c1N` [Compound 845] the same measures were 4 nM and 58 nM.
Turning to `Cc1ccc2[nH]ncc2c1-c1nc(-c2cccc3c2NCCO3)nc(C(N)=O)c1N` [Compound 852], the IC50 in experiment [1] turned out to be 17 nM; in experiment [2], 502 nM.
For `Cc1ccc2[nH]ncc2c1-c1nc(-c2cc(F)cnc2NC2CCOC(C(F)(F)F)C2)nc(C(N)=O)c1N` (stereo not drawn) [Compound 873], in that order: 19 nM and 862 nM.
For `Cc1ccc2[nH]ncc2c1-c1nc(-c2cccnc2NC(C)(C)C2CCCO2)nc(C(N)=O)c1N` (stereo not drawn) [Compound 881], in that order: less than 3 nM and 789 nM.
For `Cc1ccc2[nH]ncc2c1-c1nc(-c2cccnc2NCCn2ccnc2C)nc(C(N)=O)c1N` [Compound 884], in that order: 13 nM and 1610 nM.
Turning to `Cc1ccc2[nH]ncc2c1-c1nc(-c2cccnc2Nc2ccnn2C2CC2)nc(C(N)=O)c1N` [Compound 885], the IC50 in experiment [1] is 176 nM; in experiment [2], greater than 10000 nM.
For `Cc1ccc2[nH]ncc2c1-c1nc(-c2cn(CC3CC3)nc2NC2CCOCC2)nc(C(N)=O)c1N` [Compound 892], in that order: 15 nM and 589 nM.
For `Cc1ccc2[nH]ncc2c1-c1nc(-c2cccnc2NC2CC(OC(F)F)C2)nc(C(N)=O)c1N` (stereo not drawn) [Compound 893], in that order: less than 3 nM and 209 nM.
For `Cc1ccc2[nH]ncc2c1-c1nc(-c2cccnc2Nc2cscn2)nc(C(N)=O)c1N` [Compound 894] the same measures were 17 nM and 447 nM.
For `Cc1ccc2[nH]ncc2c1-c1nc(-c2cn(C)nc2NC2CC(F)(F)C2)nc(C(N)=O)c1N` [Compound 896], the IC50 turned out to be 4 nM in experiment [1] and 147 nM in experiment [2].
For `Cc1ccc2[nH]ncc2c1-c1nc(-c2cn(C)nc2NC2CCCC2)nc(C(N)=O)c1N` [Compound 900], in that order: 6 nM and 46 nM.
Regarding `Cc1ccc2[nH]ncc2c1-c1nc(-c2cccnc2NC2(C)CC(C)(O)C2)nc(C(N)=O)c1N` (stereo not drawn) [Compound 901], the half-inhibitory concentration (IC50) in experiment [1] was less than 3 nM; in experiment [2], 27 nM.
As for `Cc1ccc2[nH]ncc2c1-c1nc(-c2cccnc2Nc2nccn2C2CC2)nc(C(N)=O)c1N` [Compound 902], the 50% inhibitory concentration (IC50) is 619 nM in experiment [1] and greater than 10000 nM in experiment [2].
For `Cc1cc(F)c2[nH]ncc2c1-c1nc(-c2cn(C)nc2NC2CCOCC2)nc(C(N)=O)c1N` [Compound 903, 5-amino-6-(7-fluoro-5-methyl-1H-indazol-4-yl)-2-(1-methyl-3-((tetrahydro-2H-pyran-4-yl)amino)-1H-pyrazol-4-yl)pyrimidine-4-carboxamide] the same measures were 4 nM and 195 nM.
Turning to `Cc1ccc2[nH]ncc2c1-c1nc(-c2cn(C)nc2NC(C)C)nc(C(N)=O)c1N` [Compound 904], the values for the IC50 in experiment [1] and in experiment [2] were 4 nM and 147 nM, respectively.
For `Cc1ccc2[nH]ncc2c1-c1nc(-c2cccnc2NC(=O)C(C)(C)C)c(F)c(C(N)=O)c1N` [Compound 905, 5-amino-3-fluoro-6-(5-methyl-1H-indazol-4-yl)-2′-pivalamido-[2,3′-bipyridine]-4-carboxamide] the same measures were less than 3 nM and greater than 10000 nM.
For `Cc1ccc2[nH]ncc2c1-c1nc(-c2cc(F)cnc2NC2(C(F)(F)F)CC2)nc(C(N)=O)c1N` [Compound 908], in that order: less than 3 nM and 95 nM.
Turning to `Cc1ccc2[nH]ncc2c1-c1nc(-c2cccnc2N[C@H](c2cccnc2)C(F)F)nc(C(N)=O)c1N` [Compound 936], the IC50 in experiment [1] came to 2 nM; in experiment [2] it was 221 nM.
For `Cc1ccc2[nH]ncc2c1-c1nc(-c2cccnc2N[C@@H](c2cccnc2)C(F)F)nc(C(N)=O)c1N` [Compound 937] the same measures were 2 nM and 216 nM.
